Assays:
Mock-Hep3B cells = experiment: MTT cell viability assay with sorafenib, Mock-Hep3B cells; format: cell-based; conditions: Homo sapiens, 12000 cells/well, 48 hours, n=3 independent experiments, read-out: calculated IC50 (cell viability)
Protocol: (§1) Human Hep3B hepatocellular carcinoma cells (from ATCC at www.atcc.org/products/all/HB-8064.aspx) were grown in Eagle's minimum essential media (EMEM) supplemented with 10% heat-inactivated FBS, PenStrep (100 units/mL//[…]) and 2mM L-Glutamine.
(§2) Hep3B cells were transduced with either empty lentivirus (MOI=5) or lentivirus harboring CDP (MOI=5). Transduced cells were selected by growth in puromycin (4 μg/mL) to establish stable cell lines of Mock-Hep3B (empty lentivirus) and CDP-Hep3B (lentivirus containing CDP). FIG. 1 is a representative western blot showing the expression of Flag-tagged CDP in CDP-Hep3B cells (“CDP”) and not in Mock-Hep3B cells (“Mock”). […]
(§3) The growth and viability of Mock- and CDP-Hep3B cells were assessed by cell proliferation assay, using the tetrazolium salt 3-[4,5-di-methylthiazol-2yl]-2,5-diphenyl-tetrazolium bromide (MTT) reagent (resources.rndsystems.com/pdfs/datasheets/4890-025-k.pdf). […] Detergent reagent was then added to each well to solubilize the formazan dye prior to measuring the absorbance of each sample in a microplate reader at 570 nm.
(§4) Growth rates of stable cell lines were also obtained in the presence of Sorafenib. […] Cell viability was assessed using the MTT assay after 48 hours as described above.

CDP-Hep3B cells = experiment: MTT cell viability assay with sorafenib, CDP-Hep3B cells; format: cell-based; conditions: Homo sapiens, 12000 cells/well, 48 hours, n=3 independent experiments, read-out: calculated IC50 (cell viability)
Protocol: as §1, §2, §3, §4

CNC(=O)c1cc(Oc2ccc(NC(=O)Nc3ccc(Cl)c(C(F)(F)F)c3)cc2)ccn1 [sorafenib, Sorafenib]
IC50 (Mock-Hep3B cells): 4.76 ± 0.62 µM | IC50 (CDP-Hep3B cells): 4.64 ± 0.16 µM

From patent publication US20240075108A1, “HEPATOCELLULAR CARCINOMA TREATMENTS, PROPHYLACTIC THERAPIES, AND COMPOSITIONS FOR USE THEREWITH” (REPAIR BIOTECHNOLOGIES, INC., priority 2020, published 2024)
